Legend:
Type in all cases: functional
Stellaria media [1] = test: Herbicidal activity against Stellaria media at 125 g/ha after 3 weeks by post-emergence greenhouse test
Mutarda arvensis [2] = test: Herbicidal activity against Sinapis arvensis at 125 g/ha after 3 weeks by post-emergence greenhouse test
Matricaria chamomilla [3] = test: Herbicidal activity against Matricaria chamomilla at 125 g/ha after 3 weeks by post-emergence greenhouse test
Bromus tectorum [4] = test: Herbicidal activity against Bromus tectorum at 125 g/ha after 3 weeks by post-emergence greenhouse test
Alopecurus myosuroides [5] = test: Herbicidal activity against Alopecurus myosuroides at 125 g/ha after 3 weeks by post-emergence greenhouse test
Avena fatua [6] = test: Herbicidal activity against Avena fatua at 125 g/ha after 3 weeks by post-emergence greenhouse test
Triticum aestivum [7] = test: Phytotoxic activity against Triticum aestivum (wheat) at 125 g/ha after 3 weeks by post-emergence greenhouse test
Stellaria media [8] = test: Herbicidal activity against Stellaria media at 250 g/ha after 3 weeks by post-emergence greenhouse test
Mutarda arvensis [9] = test: Herbicidal activity against Sinapis arvensis at 250 g/ha after 3 weeks by post-emergence greenhouse test
Matricaria chamomilla [10] = test: Herbicidal activity against Matricaria chamomilla at 250 g/ha after 3 weeks by post-emergence greenhouse test
Bromus tectorum [11] = test: Herbicidal activity against Bromus tectorum at 250 g/ha after 3 weeks by post-emergence greenhouse test
Alopecurus myosuroides [12] = test: Herbicidal activity against Alopecurus myosuroides at 250 g/ha after 3 weeks by post-emergence greenhouse test
Avena fatua [13] = test: Herbicidal activity against Avena fatua at 250 g/ha after 3 weeks by post-emergence greenhouse test
Triticum aestivum [14] = test: Phytotoxic activity against Triticum aestivum (wheat) at 250 g/ha after 3 weeks by post-emergence greenhouse test
Stellaria media [15] = test: Herbicidal activity against Stellaria media at 500 g/ha after 3 weeks by post-emergence greenhouse test
Mutarda arvensis [16] = test: Herbicidal activity against Sinapis arvensis at 500 g/ha after 3 weeks by post-emergence greenhouse test
Bromus tectorum [17] = test: Herbicidal activity against Bromus tectorum at 500 g/ha after 3 weeks by post-emergence greenhouse test
Matricaria chamomilla [18] = test: Herbicidal activity against Matricaria chamomilla at 500 g/ha after 3 weeks by post-emergence greenhouse test
Alopecurus myosuroides [19] = test: Herbicidal activity against Alopecurus myosuroides at 500 g/ha after 3 weeks by post-emergence greenhouse test
Avena fatua [20] = test: Herbicidal activity against Avena fatua at 500 g/ha after 3 weeks by post-emergence greenhouse test
Triticum aestivum [21] = test: Phytotoxic activity against Triticum aestivum (wheat) at 500 g/ha after 3 weeks by post-emergence greenhouse test
Triticum aestivum [22] = test: Phytotoxic activity against Triticum aestivum (wheat) at 100 g/ha after 3 weeks by post-emergence greenhouse test
Chenopodium album [23] = test: Herbicidal activity against Chenopodium album at 400 g/ha after 3 weeks by post-emergence greenhouse test
Stellaria media [24] = test: Herbicidal activity against Stellaria media at 400 g/ha after 3 weeks by post-emergence greenhouse test
Mutarda arvensis [25] = test: Herbicidal activity against Sinapis arvensis at 400 g/ha after 3 weeks by post-emergence greenhouse test
Matricaria chamomilla [26] = test: Herbicidal activity against Matricaria chamomilla at 400 g/ha after 3 weeks by post-emergence greenhouse test
Bromus tectorum [27] = test: Herbicidal activity against Bromus tectorum at 400 g/ha after 3 weeks by post-emergence greenhouse test
Alopecurus myosuroides [28] = test: Herbicidal activity against Alopecurus myosuroides at 400 g/ha after 3 weeks by post-emergence greenhouse test
Chenopodium album [29] = test: Herbicidal activity against Chenopodium album at 25 g/ha after 3 weeks by post-emergence greenhouse test
Stellaria media [30] = test: Herbicidal activity against Stellaria media at 25 g/ha after 3 weeks by post-emergence greenhouse test
Mutarda arvensis [31] = test: Herbicidal activity against Sinapis arvensis at 25 g/ha after 3 weeks by post-emergence greenhouse test
Matricaria chamomilla [32] = test: Herbicidal activity against Matricaria chamomilla at 25 g/ha after 3 weeks by post-emergence greenhouse test
Bromus tectorum [33] = test: Herbicidal activity against Bromus tectorum at 25 g/ha after 3 weeks by post-emergence greenhouse test
Alopecurus myosuroides [34] = test: Herbicidal activity against Alopecurus myosuroides at 25 g/ha after 3 weeks by post-emergence greenhouse test
Triticum aestivum [35] = test: Phytotoxic activity against Triticum aestivum (wheat) at 25 g/ha after 3 weeks by post-emergence greenhouse test
Avena fatua [36] = test: Herbicidal activity against Avena fatua at 25 g/ha after 3 weeks by post-emergence greenhouse test
Chenopodium album [37] = test: Herbicidal activity against Chenopodium album at 100 g/ha after 3 weeks by post-emergence greenhouse test
Stellaria media [38] = test: Herbicidal activity against Stellaria media at 100 g/ha after 3 weeks by post-emergence greenhouse test
Mutarda arvensis [39] = test: Herbicidal activity against Sinapis arvensis at 100 g/ha after 3 weeks by post-emergence greenhouse test
Matricaria chamomilla [40] = test: Herbicidal activity against Matricaria chamomilla at 100 g/ha after 3 weeks by post-emergence greenhouse test
Bromus tectorum [41] = test: Herbicidal activity against Bromus tectorum at 100 g/ha after 3 weeks by post-emergence greenhouse test
Alopecurus myosuroides [42] = test: Herbicidal activity against Alopecurus myosuroides at 100 g/ha after 3 weeks by post-emergence greenhouse test
Avena fatua [43] = test: Herbicidal activity against Avena fatua at 100 g/ha after 3 weeks by post-emergence greenhouse test
Avena fatua [44] = test: Herbicidal activity against Avena fatua at 400 g/ha after 3 weeks by post-emergence greenhouse test
Triticum aestivum [45] = test: Phytotoxic activity against Triticum aestivum (wheat) at 400 g/ha after 3 weeks by post-emergence greenhouse test
Chenopodium album [46] = test: Herbicidal activity against Chenopodium album after 3 weeks by post-emergence greenhouse test; set-up: concentration or dose not given beside the values
Stellaria media [47] = test: Herbicidal activity against Stellaria media after 3 weeks by post-emergence greenhouse test; set-up: concentration or dose not given beside the values
Mutarda arvensis [48] = test: Herbicidal activity against Sinapis arvensis after 3 weeks by post-emergence greenhouse test; set-up: concentration or dose not given beside the values
Matricaria chamomilla [49] = test: Herbicidal activity against Matricaria chamomilla after 3 weeks by post-emergence greenhouse test; set-up: concentration or dose not given beside the values
Bromus tectorum [50] = test: Herbicidal activity against Bromus tectorum after 3 weeks by post-emergence greenhouse test; set-up: concentration or dose not given beside the values
Avena fatua [51] = test: Herbicidal activity against Avena fatua after 3 weeks by post-emergence greenhouse test; set-up: concentration or dose not given beside the values
Alopecurus myosuroides [52] = test: Herbicidal activity against Alopecurus myosuroides after 3 weeks by post-emergence greenhouse test; set-up: concentration or dose not given beside the values
Triticum aestivum [53] = test: Phytotoxic activity against Triticum aestivum (wheat) after 3 weeks by post-emergence greenhouse test; set-up: concentration or dose not given beside the values
Chenopodium album [54] = test: Herbicidal activity against Chenopodium album after 4 weeks by pre-emergence greenhouse test; set-up: concentration or dose not given beside the values
Stellaria media [55] = test: Herbicidal activity against Stellaria media after 4 weeks by pre-emergence greenhouse test; set-up: concentration or dose not given beside the values
Matricaria chamomilla [56] = test: Herbicidal activity against Matricaria chamomilla after 4 weeks by pre-emergence greenhouse test; set-up: concentration or dose not given beside the values
Mutarda arvensis [57] = test: Herbicidal activity against Sinapis arvensis after 4 weeks by pre-emergence greenhouse test; set-up: concentration or dose not given beside the values
Bromus tectorum [58] = test: Herbicidal activity against Bromus tectorum after 4 weeks by pre-emergence greenhouse test; set-up: concentration or dose not given beside the values
Alopecurus myosuroides [59] = test: Herbicidal activity against Alopecurus myosuroides after 4 weeks by pre-emergence greenhouse test; set-up: concentration or dose not given beside the values
Avena fatua [60] = test: Herbicidal activity against Avena fatua after 4 weeks by pre-emergence greenhouse test; set-up: concentration or dose not given beside the values
Triticum aestivum [61] = test: Phytotoxic activity against Triticum aestivum (wheat) after 4 weeks by pre-emergence greenhouse test

CSc1nnc(C(C)(C)C)c(=O)n1N [METRIBUZIN]
Activity (Stellaria media [1]): 88% | Activity (Mutarda arvensis [2]): 100% | Activity (Matricaria chamomilla [3]): 51% | Activity (Bromus tectorum [4]): 1% | Activity (Alopecurus myosuroides [5]): 51% | Activity (Avena fatua [6]): 0% | Phytotoxicity (Triticum aestivum [7]): 0% | Activity (Stellaria media [8]): 100% | Activity (Mutarda arvensis [9]): 100% | Activity (Matricaria chamomilla [10]): 100% | Activity (Bromus tectorum [11]): 1% | Activity (Alopecurus myosuroides [12]): 51% | Activity (Avena fatua [13]): 1% | Phytotoxicity (Triticum aestivum [14]): 1% | Activity (Stellaria media [15]): 100% | Activity (Mutarda arvensis [16]): 100% | Activity (Bromus tectorum [17]): 88% | Activity (Matricaria chamomilla [18]): 100% | Activity (Alopecurus myosuroides [19]): 100% | Activity (Avena fatua [20]): 76% | Phytotoxicity (Triticum aestivum [21]): 1%

CCS(=O)(=O)c1nc2ccccn2c1S(=O)(=O)NC(=O)Nc1nc(OC)cc(OC)n1 [SULFOSULFURON]
Phytotoxicity (Triticum aestivum [22]): 0% | Activity (Chenopodium album [23]): 51% | Activity (Stellaria media [24]): 88% | Activity (Mutarda arvensis [25]): 88% | Activity (Matricaria chamomilla [26]): 88% | Activity (Bromus tectorum [27]): 88% | Activity (Alopecurus myosuroides [28]): 88% | Activity (Chenopodium album [29]): 1% | Activity (Stellaria media [30]): 88% | Activity (Mutarda arvensis [31]): 88% | Activity (Matricaria chamomilla [32]): 88% | Activity (Bromus tectorum [33]): 88% | Activity (Alopecurus myosuroides [34]): 88% | Phytotoxicity (Triticum aestivum [35]): 0% | Activity (Avena fatua [36]): 88% | Activity (Chenopodium album [37]): 1% | Activity (Stellaria media [38]): 88% | Activity (Mutarda arvensis [39]): 88% | Activity (Matricaria chamomilla [40]): 88% | Activity (Bromus tectorum [41]): 88% | Activity (Alopecurus myosuroides [42]): 88% | Activity (Avena fatua [43]): 88% | Activity (Avena fatua [44]): 0% | Phytotoxicity (Triticum aestivum [45]): 0% | Activity (Chenopodium album [46]): 51% | Activity (Stellaria media [47]): 88% | Activity (Mutarda arvensis [48]): 88% | Activity (Matricaria chamomilla [49]): 88% | Activity (Bromus tectorum [50]): 88% | Activity (Avena fatua [51]): 88% | Activity (Alopecurus myosuroides [52]): 88% | Activity (Triticum aestivum [53]): 0% | Activity (Chenopodium album [54]): 88% | Activity (Stellaria media [55]): 88% | Activity (Matricaria chamomilla [56]): 88% | Activity (Mutarda arvensis [57]): 88% | Activity (Bromus tectorum [58]): 88% | Activity (Alopecurus myosuroides [59]): 88% | Activity (Avena fatua [60]): 51% | Phytotoxicity (Triticum aestivum [61]): 0%
